Results reported in PubChem BioAssay AID328 (DTP/NCI, 2004).
Several values for one entry are separate records, joined by “and”; a condition that tells them apart may be missing. Equal entries are not always repeated. Inconclusive results and toxic doses are left out.

System: BDF1 mice, P388 leukemia ip, median survival T/C
Assay: NCI In Vivo Anticancer Drug Screen. Data for tumor model P388 Leukemia (intraperitoneal) in B6D2F1 (BDF1) mice
Details: endpoint: median survival time, higher = longer survival
Procedure, shortened: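 Mice carrying the transplantable tumour receive compound or vehicle. Survival is followed in each arm, and the treated measure is divided by the vehicle measure.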

[1] = dose: 12.5 mg/kg/injection, schedule: Q01DX009 (ip), vehicle: saline with Tween-80
[2] = dose: 25.0 mg/kg/injection, schedule: Q01DX009 (ip), vehicle: saline with Tween-80
[3] = dose: 50.0 mg/kg/injection, schedule: Q01DX009 (ip), vehicle: saline with Tween-80
[4] = dose: 100.0 mg/kg/injection, schedule: Q01DX009 (ip), vehicle: saline with Tween-80
[5] = dose: 200.0 mg/kg/injection, schedule: Q01DX009 (ip), vehicle: saline with Tween-80

For `CC1(C)N=C(N)N=C(N)N1c1ccc(CCC(=O)Nc2ccc(S(=O)(=O)F)cc2)cc1`, the T/C (dose: 0.88 mg/kg/injection, schedule: Q01DX009 (ip), vehicle: saline with Tween-80) was 108 % of control, the T/C (dose: 1.32 mg/kg/injection, schedule: Q01DX009 (ip), vehicle: saline with Tween-80) was 112 % of control and the T/C (dose: 2.0 mg/kg/injection, schedule: Q01DX009 (ip), vehicle: saline with Tween-80) was 116 % of control. For the same compound, the T/C [1] was 150 % of control, the T/C [2] was 163 % of control and the T/C (dose: 44.0 mg/kg/injection, schedule: Q04DX003 (ip), vehicle: saline sonified) was 122 % of control. The T/C [3] was 159 % of control, the T/C (dose: 66.0 mg/kg/injection, schedule: Q04DX003 (ip), vehicle: saline sonified) was 111 % of control and the T/C (dose: 100.0 mg/kg/injection, schedule: Q01DX009 (ip), vehicle: saline sonified) was 240 % of control. The T/C (dose: 100.0 mg/kg/injection, schedule: Q04DX003 (ip), vehicle: saline sonified) was 111 % of control, the T/C (dose: 150.0 mg/kg/injection, schedule: Q04DX003 (ip), vehicle: saline sonified) was 122 % of control and the T/C (dose: 200.0 mg/kg/injection, schedule: Q01DX009 (ip), vehicle: saline sonified) was 95 % of control. For the same compound, the T/C (dose: 400.0 mg/kg/injection, schedule: Q01DX009 (ip), vehicle: saline sonified) was 90 % of control.

`CC(=O)n1ncc2ccc(N)cc21` was tested, and the T/C (dose: 25.0 mg/kg/injection, schedule: Q01DX009 (ip), vehicle: water) was 94 % of control, the T/C (dose: 50.0 mg/kg/injection, schedule: Q01DX009 (ip), vehicle: water) was 96 % of control and the T/C (dose: 50.0 mg/kg/injection, schedule: Q04DX003 (ip), vehicle: water) was 103 % of control. For the same compound, the T/C (dose: 100.0 mg/kg/injection, schedule: Q01DX009 (ip), vehicle: water) was 102 % of control, the T/C (dose: 100.0 mg/kg/injection, schedule: Q04DX003 (ip), vehicle: water) was 103 % of control and the T/C (dose: 200.0 mg/kg/injection, schedule: Q01DX009 (ip), vehicle: water) was 99 % of control. For the same compound, the T/C (dose: 200.0 mg/kg/injection, schedule: Q04DX003 (ip), vehicle: water) was 101 % of control and the T/C (dose: 400.0 mg/kg/injection, schedule: Q04DX003 (ip), vehicle: water) was 120 % of control.

For `OCC1CSC(c2ccccc2)N1` (centres undefined), the T/C [3] was 86 % of control, the T/C [4] was 115 % of control and the T/C [5] was 103 % of control.

With `C[N+]1(C)CCCCC1` the T/C (dose: 12.5 mg/kg/injection, schedule: Q01DX009 (ip), vehicle: saline) was 95 % of control and 100 % of control, the T/C (dose: 12.5 mg/kg/injection, schedule: Q04DX003 (ip), vehicle: saline with Tween-80) was 101 % of control and the T/C (dose: 25.0 mg/kg/injection, schedule: Q01DX009 (ip), vehicle: saline) was 98 % of control and 100 % of control. For the same compound, the T/C (dose: 50.0 mg/kg/injection, schedule: Q04DX003 (ip), vehicle: saline) was 100 % of control.

In the case of `CC(=O)OCC1OC(n2cnc3c(=S)nc[nH]c32)C(OC(C)=O)C1OC(C)=O` (centres undefined), the T/C [4] is reported as 118 % of control, the T/C [5] is reported as 109 % of control and the T/C (dose: 400.0 mg/kg/injection, schedule: Q01DX009 (ip), vehicle: saline with Tween-80) is reported as 90 % of control.

With `O=C(/C=C(\CN1CCCCC1)c1ccccc1)c1ccccc1` the T/C (dose: 25.0 mg/kg/injection, schedule: Q01DX009 (ip), vehicle: Klucel (hydroxypropylcellulose) (HPC)) was 100 % of control, the T/C (dose: 25.0 mg/kg/injection, schedule: Q04DX003 (ip), vehicle: Klucel (hydroxypropylcellulose) (HPC)) was 91 % of control and the T/C (dose: 50.0 mg/kg/injection, schedule: Q01DX009 (ip), vehicle: Klucel (hydroxypropylcellulose) (HPC)) was 104 % of control. The T/C (dose: 50.0 mg/kg/injection, schedule: Q04DX003 (ip), vehicle: Klucel (hydroxypropylcellulose) (HPC)) was 104 % of control, the T/C (dose: 100.0 mg/kg/injection, schedule: Q01DX009 (ip), vehicle: Klucel (hydroxypropylcellulose) (HPC)) was 109 % of control and the T/C (dose: 100.0 mg/kg/injection, schedule: Q04DX003 (ip), vehicle: Klucel (hydroxypropylcellulose) (HPC)) was 108 % of control.

`CN=S(=O)(OC/C=C/COS(=O)(=NC)c1ccc(C)cc1)c1ccc(C)cc1` (centres undefined) was tested, and the T/C [1] was 95 % of control, the T/C [2] was 110 % of control and the T/C (dose: 50.0 mg/kg/injection, schedule: Q01DX009 (ip), vehicle: saline + alcohol) was 121 % of control. The T/C [4] was 100 % of control.

For `C1=CC2C3=CC1C=CC32` (centres undefined), the T/C (dose: 18.75 mg/kg/injection, schedule: Q04DX003 (ip), vehicle: Klucel (hydroxypropylcellulose) (HPC)) was 91 % of control, the T/C (dose: 37.5 mg/kg/injection, schedule: Q04DX003 (ip), vehicle: Klucel (hydroxypropylcellulose) (HPC)) was 95 % of control and the T/C (dose: 75.0 mg/kg/injection, schedule: Q04DX003 (ip), vehicle: Klucel (hydroxypropylcellulose) (HPC)) was 91 % of control.
